Assay results published in patent US4112219A, “Acyl derivatives of antibiotic BM123γ” (American Cyanamid Company, priority 1977, dated 1978).
Where “and” joins values, the source holds several entries; their conditions need not be identical. Equal values may be shown once.

These substances were tested on Escherichia coli US311 (assay: in vivo activity against Escherichia coli US311 in mice (systemic lethal infection, single subcutaneous dose)). Details: infected intraperitoneally with lethal dose of E. coli US311.
Set-up: species or system Escherichia coli US311 in Carworth Farms CF-1 mice
Source text: The starting material for the acylation procedure has been defined hereinabove as antibiotic BM123γ having formula (IV). When R' is structure (II) in formula (IV), then the antibiotic is BM123γ1 and when R' is structure (III) in formula (IV), then the antibiotic is BM123γ2. […] The preparation and properties of trans-BM123γ1 and trans-BM123γ2 are disclosed in U.S. Pat. No. 4,007,167 whereas the preparation and properties of cis-BM123γ1 and cis-BM123γ2 are set forth in U.S. Pat. No. 4,018,972. The term cis-BM123γ refers to a mixture in any proportion of cis-BM123γ1 and cis-BM123γ2 whereas the term trans-BM123γ refers to a mixture in any proportion of trans-BM123γ1 and trans-BM123γ2. The expression antibiotic BM123γ refers to either cis-BM123γ or trans-BM123γ. […] These new substances show high in vivo antibacterial activity in mice against Escherichia coli US311 when administered by a single subcutaneous dose to groups of Carworth Farms CF-1 mice, weight about 20 grams, infected intraperitoneally with a lethal dose of this bacteria in a 10^-3 trypticase soy broth TSP dilution of a 5 hour TSP blood culture. In Table I below is set forth the in vivo activity of typical products of this invention (prepared by the procedure of Example 1 from the indicated activated ester which was prepared by the procedure of Example 2 or Example 3) against Escherichia coli US311 in mice. The activity is expressed in terms of the ED50 or the dose in mg./kg. of body weight required to protect 50% of the mice against E. coli. The derivative name in Table I indicates whether cis-BM123 or trans-BM123 was employed as starting material.
In the case of 1,4-Thiapyran(2)carbonyl-trans-BM123γ, the “ED50 (dose required to protect 50% of the mice against E. coli)” value is reported as 2.0 mg./kg. of Body Weight.
1-Naphthoyl-trans-BM123γ was tested, and the “ED50 (dose required to protect 50% of the mice against E. coli)” value was 0.5 mg./kg. of Body Weight.
For 2,3,6-Trichlorobenzoyl-trans-BM123γ, the “ED50 (dose required to protect 50% of the mice against E. coli)” value was 2.0 mg./kg. of Body Weight.
With 2,4-Dichlorobenzoyl-trans-BM123γ the “ED50 (dose required to protect 50% of the mice against E. coli)” value was 0.5 mg./kg. of Body Weight and 1.0 mg./kg. of Body Weight.
For 2,5-Dibromobenzoyl-trans-BM123γ, the “ED50 (dose required to protect 50% of the mice against E. coli)” value was 2.0 mg./kg. of Body Weight.
In the case of 2,6-Dimethoxybenzoyl-trans-BM123γ, the “ED50 (dose required to protect 50% of the mice against E. coli)” value is reported as 2.0 mg./kg. of Body Weight.
For 2-Furyl-trans-BM123γ, the “ED50 (dose required to protect 50% of the mice against E. coli)” value was 1.0 mg./kg. of Body Weight.
For 2-Methylpropionyl-trans-BM123γ, the “ED50 (dose required to protect 50% of the mice against E. coli)” value was 2.0 mg./kg. of Body Weight.
With 2-Napthyloxyacetyl-trans-BM123γ the “ED50 (dose required to protect 50% of the mice against E. coli)” value was 0.5 mg./kg. of Body Weight.
With 2-Thienyl-trans-BM123γ the “ED50 (dose required to protect 50% of the mice against E. coli)” value was 1.0 mg./kg. of Body Weight.
With 3,4,5-Trimethoxybenzoyl-trans-BM123γ the “ED50 (dose required to protect 50% of the mice against E. coli)” value was 2.0 mg./kg. of Body Weight.
For 3,4-Dichlorobenzoyl-trans-BM123γ, the “ED50 (dose required to protect 50% of the mice against E. coli)” value was 0.5 mg./kg. of Body Weight and 1.0 mg./kg. of Body Weight.
In the case of 3,4-Dimethylbenzoyl-trans-BM123γ, the “ED50 (dose required to protect 50% of the mice against E. coli)” value is reported as 2.0 mg./kg. of Body Weight.
For 3,5-Dichlorobenzoyl-trans-BM123γ, the “ED50 (dose required to protect 50% of the mice against E. coli)” value was 0.5 mg./kg. of Body Weight.
For 3,5-Dinitrobenzoyl-trans-BM123γ, the “ED50 (dose required to protect 50% of the mice against E. coli)” value was 1.0 mg./kg. of Body Weight.
For 3-Methoxy-2-naphthoyl-trans-BM123γ, the “ED50 (dose required to protect 50% of the mice against E. coli)” value was 2.0 mg./kg. of Body Weight.
In the case of “4-(p-Chlorophenylsulfonyl)-benzoyl-trans-BM123γ”, the “ED50 (dose required to protect 50% of the mice against E. coli)” value is reported as 2.0 mg./kg. of Body Weight.
For “4-Carbethoxy-3,5-dimethoxybenzoyl-trans-BM123γ”, the “ED50 (dose required to protect 50% of the mice against E. coli)” value was 2.0 mg./kg. of Body Weight.
In the case of “4-Ethyl-2,3-diketopiperazine-1-carbonyl-trans-BM123γ”, the “ED50 (dose required to protect 50% of the mice against E. coli)” value is reported as 2.0 mg./kg. of Body Weight.
With 4-Fluoro-1-naphthoyl-trans-BM123γ the “ED50 (dose required to protect 50% of the mice against E. coli)” value was 1.0 mg./kg. of Body Weight.
For “4-Oxy-4H-thiapyran-3-yl-carbonyl-trans-BM123γ”, the “ED50 (dose required to protect 50% of the mice against E. coli)” value was 2.0 mg./kg. of Body Weight.
In the case of 8-Bromo-1-napthoyl-trans-BM123γ, the “ED50 (dose required to protect 50% of the mice against E. coli)” value is reported as 1.5 mg./kg. of Body Weight.
Benzoyl-trans-BM123γ was tested, and the “ED50 (dose required to protect 50% of the mice against E. coli)” value was 4.0 mg./kg. of Body Weight.
In the case of Carbethoxyformyl-trans-BM123γ, the “ED50 (dose required to protect 50% of the mice against E. coli)” value is reported as 1.0 mg./kg. of Body Weight.
With Chlorodiphenylacetyl-trans-BM123γ the “ED50 (dose required to protect 50% of the mice against E. coli)” value was 2.0 mg./kg. of Body Weight.
Cinnamoyl-trans-BM123γ was tested, and the “ED50 (dose required to protect 50% of the mice against E. coli)” value was 2.0 mg./kg. of Body Weight.
In the case of Cyclopropylcarbonyl-trans-BM123γ, the “ED50 (dose required to protect 50% of the mice against E. coli)” value is reported as 2.0 mg./kg. of Body Weight.
In the case of Decanoyl-trans-BM123γ, the “ED50 (dose required to protect 50% of the mice against E. coli)” value is reported as 2.0 mg./kg. of Body Weight.
In the case of Methoxyacetyl-trans-BM123γ, the “ED50 (dose required to protect 50% of the mice against E. coli)” value is reported as 2.0 mg./kg. of Body Weight.
For Pentachlorobenzoyl-trans-BM123γ, the “ED50 (dose required to protect 50% of the mice against E. coli)” value was 2.0 mg./kg. of Body Weight.
In the case of Pentafluorobenzoyl-trans-BM123γ, the “ED50 (dose required to protect 50% of the mice against E. coli)” value is reported as 0.5 mg./kg. of Body Weight.
With Phenoxyacetyl-trans-BM123γ the “ED50 (dose required to protect 50% of the mice against E. coli)” value was 1.0 mg./kg. of Body Weight.
In the case of Propionyl-trans-BM123γ, the “ED50 (dose required to protect 50% of the mice against E. coli)” value is reported as 4.0 mg./kg. of Body Weight.
For “Pyridine-n-oxide-2-carbonyl-trans-BM123γ”, the “ED50 (dose required to protect 50% of the mice against E. coli)” value was 2.0 mg./kg. of Body Weight.
For Trichloroacetyl-trans-BM123γ, the “ED50 (dose required to protect 50% of the mice against E. coli)” value was 1.0 mg./kg. of Body Weight.
With Trimethylacetyl-trans-BM123γ the “ED50 (dose required to protect 50% of the mice against E. coli)” value was 1.0 mg./kg. of Body Weight.
With m-Bromobenzoyl-trans-BM123γ the “ED50 (dose required to protect 50% of the mice against E. coli)” value was 0.75 mg./kg. of Body Weight.
With m-Fluorobenzoyl-trans-BM123γ the “ED50 (dose required to protect 50% of the mice against E. coli)” value was 1.0 mg./kg. of Body Weight.
m-Hydroxybenzoyl-trans-BM123γ was tested, and the “ED50 (dose required to protect 50% of the mice against E. coli)” value was 1.5 mg./kg. of Body Weight.
For m-Mercaptobenzoyl-trans-BM123γ, the “ED50 (dose required to protect 50% of the mice against E. coli)” value was 2.0 mg./kg. of Body Weight.
With m-Methylbenzoyl-trans-BM123γ the “ED50 (dose required to protect 50% of the mice against E. coli)” value was 1.0 mg./kg. of Body Weight.
For m-Phenoxybenzoyl-trans-BM123γ, the “ED50 (dose required to protect 50% of the mice against E. coli)” value was 1.5 mg./kg. of Body Weight.
o-Acetoxybenzoyl-trans-BM123γ was tested, and the “ED50 (dose required to protect 50% of the mice against E. coli)” value was 2.0 mg./kg. of Body Weight.
With o-Benzoylbenzoyl-trans-BM123γ the “ED50 (dose required to protect 50% of the mice against E. coli)” value was 2.0 mg./kg. of Body Weight.
For o-Benzylbenzoyl-trans-BM123γ, the “ED50 (dose required to protect 50% of the mice against E. coli)” value was 2.0 mg./kg. of Body Weight.
For o-Fluorobenzoyl-trans-BM123γ, the “ED50 (dose required to protect 50% of the mice against E. coli)” value was 1.0 mg./kg. of Body Weight.
For o-Hydroxybenzoyl-trans-BM123γ, the “ED50 (dose required to protect 50% of the mice against E. coli)” value was 8.0 mg./kg. of Body Weight.
o-Mercaptobenzoyl-trans-MB123γ was tested, and the “ED50 (dose required to protect 50% of the mice against E. coli)” value was 2.0 mg./kg. of Body Weight.
For o-Methylbenzoyl-trans-BM123γ, the “ED50 (dose required to protect 50% of the mice against E. coli)” value was 2.0 mg./kg. of Body Weight and 1.0 mg./kg. of Body Weight.
In the case of p-Acetaminobenzoyl-trans-BM123γ, the “ED50 (dose required to protect 50% of the mice against E. coli)” value is reported as 2.0 mg./kg. of Body Weight.
In the case of p-Acetylbenzoyl-trans-BM123γ, the “ED50 (dose required to protect 50% of the mice against E. coli)” value is reported as 2.0 mg./kg. of Body Weight.
p-Biphenylcarbonyl-trans-BM123γ was tested, and the “ED50 (dose required to protect 50% of the mice against E. coli)” value was 2.0 mg./kg. of Body Weight.
p-Chlorobenzoyl-trans-BM123γ was tested, and the “ED50 (dose required to protect 50% of the mice against E. coli)” value was 4.0 mg./kg. of Body Weight.
With p-Cyanobenzoyl-trans-BM123γ the “ED50 (dose required to protect 50% of the mice against E. coli)” value was 4.0 mg./kg. of Body Weight.
For p-Dimethylaminobenzoyl-trans-BM123γ, the “ED50 (dose required to protect 50% of the mice against E. coli)” value was 2.0 mg./kg. of Body Weight.
p-Ethoxybenzoyl-trans-BM123γ was tested, and the “ED50 (dose required to protect 50% of the mice against E. coli)” value was 2.0 mg./kg. of Body Weight.
p-Fluorobenzoyl-trans-BM123γ was tested, and the “ED50 (dose required to protect 50% of the mice against E. coli)” value was 1.0 mg./kg. of Body Weight.
In the case of p-Formylbenzoyl-trans-BM123γ, the “ED50 (dose required to protect 50% of the mice against E. coli)” value is reported as 2.0 mg./kg. of Body Weight.
p-Hydroxybenzoyl-trans-BM123γ was tested, and the “ED50 (dose required to protect 50% of the mice against E. coli)” value was 2.0 mg./kg. of Body Weight.
With p-Methoxybenzoyl-trans-BM123γ the “ED50 (dose required to protect 50% of the mice against E. coli)” value was 1.0 mg./kg. of Body Weight.
For p-Methylthiobenzoyl-trans-BM123γ, the “ED50 (dose required to protect 50% of the mice against E. coli)” value was 4.0 mg./kg. of Body Weight.
p-Nitrobenzoyl-trans-BM123γ was tested, and the “ED50 (dose required to protect 50% of the mice against E. coli)” value was 0.5 mg./kg. of Body Weight.
In the case of p-Sulfamylbenzoyl-trans-BM123γ, the “ED50 (dose required to protect 50% of the mice against E. coli)” value is reported as 0.5 mg./kg. of Body Weight.
For p-Trifluoromethoxybenzoyl:trans-BM123γ, the “ED50 (dose required to protect 50% of the mice against E. coli)” value was 1.0 mg./kg. of Body Weight.
With p-Trifluoromethylbenzoyl-trans-BM123γ the “ED50 (dose required to protect 50% of the mice against E. coli)” value was 4.0 mg./kg. of Body Weight.
p-t-Butylbenzoyl-trans-BM123γ was tested, and the “ED50 (dose required to protect 50% of the mice against E. coli)” value was 4.0 mg./kg. of Body Weight.
In the case of α-Bromopropionyl-trans-BM123γ, the “ED50 (dose required to protect 50% of the mice against E. coli)” value is reported as 2.0 mg./kg. of Body Weight.
For α-Phenoxypropionyl-trans-BM123γ, the “ED50 (dose required to protect 50% of the mice against E. coli)” value was 2.0 mg./kg. of Body Weight and 1.0 mg./kg. of Body Weight.

Same assay, conditions: infected intraperitoneally with lethal dose of E. coli US311, listed as α-Phenyoxypropionyl-trans-BM123γ
In the case of α-Phenoxypropionyl-trans-BM123γ, the “ED50 (dose required to protect 50% of the mice against E. coli)” value is reported as 2.0 mg./kg. of Body Weight.
